Data from patent US20220288026A1, “METHODS OF TREATING KIDNEY DISEASES” (priority 2019, published 2022).
Entries after “also recorded” stand apart in the source; their conditions may differ. Read-outs that look alike come from different tables or passages of the source.

Assays:
[1] = system: kidney tissue of g-ddY mice; assay: IPA upstream regulator analysis, g-ddY kidney RNA-seq; type: in vivo, mouse; conditions: 30 mg/kg/day
[2] = system: kidney tissue of g-ddY mice
[3] = system: patients with diabetic kidney disease (DKD); conditions: cited from earlier work
[4] = system: kidney tissue of g-ddY mice; assay: Gene Set Enrichment Analysis (GSEA) hallmark gene sets, g-ddY kidney RNA-seq; type: in vivo, mouse
Protocol: (§1) RNA isolation and sequencing libraries were generated using standard protocols. Sequencing was performed using an Illumina NextSeq500 using manufacturer's instructions with a read length of 75 bp and a read depth of 30 million. Raw data was assembled to FASTQ files. Following QC analysis, high quality sequencing reads (e.g., reads with a Phred quality score >36) were aligned to the mouse reference genome (GRCm38-mm10) using the default parameters of the align algorithm and transcript count tables of each library was generated using the default parameters of the featureCounts algorithm of the RSubread package (Liao Y, Smyth G K, Shi W, 2019). High quality sequencing reads mapped to 27,129 genes. Following additional QC of low count filtering (i.e. transcripts <10 counts across all samples), 16,207 genes were identified and used for further analysis. The remaining sequencing read counts of the included 16,207 genes were normalized to library size, log-transformed, and were quantified as counts per million (CPM). Select RNA-seq counts were validated using qPCR.

[5] = system: kidney tissue of g-ddY mice; assay: Ingenuity Pathway Analysis (IPA) canonical pathways, g-ddY kidney RNA-seq; type: in vivo, mouse; conditions: 30 mg/kg/day
Protocol: as §1

g-ddY mice = assay: UACR (albuminuria) in g-ddY mouse model of IgA nephropathy; type: in vivo
Excerpt: The grouped ddY (g-ddY) mouse is a spontaneous model of early-onset IgA nephropathy characterized by IgA immune complex deposition in the mesangium of the kidney, leading to significant proteinuria, glomerular hypercellularity, mesangioproliferative glomerular lesions, glomerular sclerosis and reduced kidney function, all hallmarks of human IgA nephropathy (J Am Soc Nephrol 23: 1364-1374, 2012). Consistent with human IgA nephropathy, the mesangial IgA deposits in the g-ddY mouse are also accompanied by deposition of IgG and complement C3.

[6] = system: primary human renal mesangial cells (HRMCs); assay: Proliferation (BrdU) of HRMCs stimulated with IgA-containing immune complexes; type: cell-based
Excerpt: Primary human mesangial cells in a culture were stimulated with pathogenic galactose deficient (Gd)-IgA containing immune complexes isolated from human IgA nephropathy patients.
Specifically, pathogenic IgA-containing immune complexes were isolated from serum from either IgA nephropathy patients or age, gender and ethnicity-matched healthy individuals. Frozen serum was purchased from BioIVT and IgA-containing immune complexes were purified using jacalin affinity chromatography. […] Purified IgA-containing immune complexes were concentrated using a 100K Amicon filtration unit and the amount of total IgA and galactose-deficient IgA (Gd-IgA) in the immune complexes was measured by ELISA (ThermoFisher and IBL America, respectively). […] See, e.g., Novak et. al., Kidney International, 67, pp. 504-516; 2005; Novak et. al., Nephrol. Dial. Transplant, 26, pp. 3451-3457; 2011; Liang et. al., Cell Physiol. Biochem., 36, pp. 1793-1808; 2015; Nguyen et. al., Clin. Kidney J., 12 (2), pp, 232-238; 2019.

[7] = 10 mg/kg/day vs untreated control
[8] = 20 mg/kg/day vs untreated control
[9] = 30 mg/kg/day vs untreated control

CCCCN(CCCC)C(=O)CN1C[C@H](c2ccc3c(c2)OCO3)[C@@H](C(=O)O)[C@@H]1c1ccc(OC)cc1 [atrasentan, (2R,3R,4S)-4-(1,3-benzodioxol-5-yl)-1-[2-(dibutylamino)-2-oxoethyl]-2-(4-methoxyphenyl)pyrrolidine-3-carboxylic acid]
Predicted Activation State 26s Proteasome [1]: Inhibited | Predicted Activation State ADGRF5 [1]: Activated | Predicted Activation State AGT [1]: Inhibited | Predicted Activation State BMP2 [1]: Inhibited | Predicted Activation State CCL5 [1]: Inhibited | Predicted Activation State CCN5 [1]: Activated | Predicted Activation State CCR2 [1]: Inhibited | Predicted Activation State CD40LG [1]: Inhibited | Predicted Activation State CG [1]: Inhibited | Predicted Activation State CHRM3 [1]: Inhibited | Predicted Activation State CSF2 [1]: Inhibited | Predicted Activation State CSF3 [1]: Inhibited | Predicted Activation State CXCL12 [1]: Inhibited | Predicted Activation State DKK1 [1]: Activated | Predicted Activation State EDN1 [1]: Inhibited | Predicted Activation State EDNRA [1]: Inhibited | Predicted Activation State EGF [1]: Inhibited | Predicted Activation State F2R [1]: Inhibited | Predicted Activation State F3 [1]: Inhibited | Predicted Activation State FAS [1]: Activated | Predicted Activation State FCGR1A [1]: Inhibited | Predicted Activation State FGF2 [1]: Inhibited | Predicted Activation State FGF23 [1]: Inhibited | Predicted Activation State GDF2 [1]: Inhibited | Predicted Activation State GPER1 [1]: Inhibited | Predicted Activation State HGF [1]: Inhibited | Predicted Activation State HTR7 [1]: Inhibited | Predicted Activation State IFNA2 [1]: Inhibited | Predicted Activation State IFNAR1 [1]: Inhibited | Predicted Activation State IFNG [1]: Inhibited | Predicted Activation State IGF1 [1]: Inhibited | Predicted Activation State IGF1R [1]: Activated | Predicted Activation State IL1A [1]: Inhibited | Predicted Activation State IL1B [1]: Inhibited | Predicted Activation State IL2 [1]: Inhibited | Predicted Activation State IL3 [1]: Inhibited | Predicted Activation State IL6 [1]: Inhibited | Predicted Activation State IL6R [1]: Inhibited | Predicted Activation State IL10 [1]: Inhibited | Predicted Activation State IL21 [1]: Inhibited | Predicted Activation State IL33 [1]: Inhibited | Predicted Activation State ILR4 [1]: Inhibited | Predicted Activation State Ifn gamma [1]: Inhibited | Predicted Activation State Ige [1]: Inhibited | Predicted Activation State LDL [1]: Inhibited | Predicted Activation State LGR5 [1]: Activated | Predicted Activation State Laminin (complex) [1]: Activated | Predicted Activation State NFkB (complex) [1]: Inhibited | Predicted Activation State NRG1 [1]: Inhibited | Predicted Activation State OSM [1]: Inhibited | Predicted Activation State PDGF BB [1]: Inhibited | Predicted Activation State PDGFB [1]: Inhibited | Predicted Activation State PF4 [1]: Inhibited | Predicted Activation State PI3K (complex) [1]: Inhibited | Predicted Activation State PLA2R1 [1]: Activated | Predicted Activation State PRL [1]: Inhibited | Predicted Activation State PROKR1 [1]: Activated | Predicted Activation State PTGER4 [1]: Activated | Predicted Activation State Pdgf (complex) [1]: Inhibited | Predicted Activation State SMO [1]: Activated | Predicted Activation State TCR [1]: Inhibited | Predicted Activation State TGFB1 [1]: Inhibited | Predicted Activation State TGFB2 [1]: Inhibited | Predicted Activation State TGFB3 [1]: Inhibited | Predicted Activation State TLR3 [1]: Inhibited | Predicted Activation State TLR9 [1]: Inhibited | Predicted Activation State TNF [1]: Inhibited | Predicted Activation State TNFRSF1A [1]: Inhibited | Predicted Activation State TNFSF11 [1]: Inhibited | Predicted Activation State TNFSF12 [1]: Inhibited | Predicted Activation State TREM1 [1]: Inhibited | Predicted Activation State TSLP [1]: Inhibited | Predicted Activation State TYROBP [1]: Inhibited | Predicted Activation State VEGFA [1]: Inhibited | Predicted Activation State VEGFB [1]: Activated | Predicted Activation State WNT3A [1]: Inhibited | ET1 gene signature genes downregulated [2, 7]: Grk5, Mllt3, Klf2, Pparg, Hgf, Edn1, Fos, Ptgs2, and IL-1b were downregulated | ET1 gene signature genes upregulated [2, 7]: Ccnd1, Ppara, Agt, Map2k2 and Hoxa9 were upregulated | ET1 gene signature genes downregulated [2, 8]: Nfatc1, Grk5, Klf2, Cav1, Pparg, Itga5, Myc, Ednra, Sell, Hgf, Mmp2, Edn1, Syk, Fos, and IL-1b were downregulated | ET1 gene signature genes upregulated [2, 8]: Ccdn1, Cat, Ppara, Map2k2, Hoxa9, Agt, and Egfr were upregulated | ET1 gene signature genes downregulated [2, 9]: downregulated genes Ednrb, Myc, Mllt3, Hdac7, Ednra, Itga5, Grk5, Pparg, Klf2, Hgf, Mmp2, Sell, Sphk1, Fos, Syk, Edn1, and IL-1b | ET1 gene signature genes upregulated [2, 9]: upregulated genes Ccnd1, Agt, Cat, Map2k2, Hoxa9, and Ppara | ET1 (Edn1) gene expression ([2]; 10, 20, and 30 mg/kg/day): downregulated across all three doses | risk of renal events (doubling of serum creatinine or end-stage kidney disease) [3]: significantly reducing the risk of renal events | NES HALLMARK_REACTIVE_OXYGEN_SPECIES_PATHWAY ([4]; 10 mg/kg/day vs. control): 1.59 | NES HALLMARK_REACTIVE_OXYGEN_SPECIES_PATHWAY ([4]; 20 mg/kg/day vs. control): 1.61 | IL-6 signaling ([4]; 30 mg/kg/day): reduced IL-6 signaling | cell proliferation associated signaling (mitotic spindle and G2M checkpoint) ([4]; 30 mg/kg/day): reduced cell proliferation associated signaling | inflammatory response signaling ([4]; 30 mg/kg/day): reduced inflammatory response signaling | NES HALLMARK_REACTIVE_OXYGEN_SPECIES_PATHWAY ([4]; 30 mg/kg/day vs. control): 1.98 | GSEA: TNFα signaling via NF-κB, epithelial mesenchymal transition, inflammatory response, IL6-JAK-STAT3 signaling, mitotic spindle, G2M checkpoint ([4]; 10, 20, and 30 mg/kg/day): concordant negative enrichment | IPA: effect on signaling pathways [5]: reduced NF-κB signaling, IL-6 pathway signaling (e.g., STAT3), and PDGF signaling | NF-κB signaling [5]: reduced NF-κB signaling | PDGF signaling [5]: reduced PDGF signaling | UACR reduction compared to control group (un-paired t-test) (g-ddY mice; 10 mg/kg/day): not significant | mice with reduced albuminuria/proteinuria (g-ddY mice; 10 mg/kg/day group): ⅔ | albuminuria compared to baseline (paired t-test) (g-ddY mice; 10 mg/kg/day, approximately 5 days): not significantly changed from baseline | UACR reduction compared to control group (un-paired t-test) (g-ddY mice; 20 mg/kg/day, P=0.0498): statistically significant compared to the control group | albuminuria compared to baseline (paired t-test) (g-ddY mice; 20 mg/kg/day, approximately 5 days, P=0.0593): reduced from baseline to a similar extent | UACR reduction compared to control group (un-paired t-test) (g-ddY mice; 30 mg/kg/day, P=0.029): statistically significant compared to the control group | albuminuria compared to baseline (paired t-test) (g-ddY mice; 30 mg/kg/day, approximately 5 days, P=0.0002): reduced albuminuria from baseline | albuminuria reduction from baseline (g-ddY mice; 20 and 30 mg/kg/day, approximately 5 days): > 60% | basal cell proliferation of HRMCs ([6]; IgA containing serum fractions from healthy controls): no effect on basal cell proliferation | hyperproliferation of HRMCs induced by IgA containing immune complexes ([6]; immune complexes from three patients with IgA nephropathy): reduces the proliferation; also recorded: significantly attenuated the hyperproliferation
